The IC50 is the point on the concentration scale where inhibition reaches its midpoint. High values mean weaker potency in that assay, low ones greater potency in that assay.

Each structure is given as a SMILES string. Some results are limits rather than exact numbers.

The target in one assay is T1, SGLT1 (Homo sapiens, UniProt P13866).
T1 construct: expressed in transfected cells
T1 sequence (P13866 1-664): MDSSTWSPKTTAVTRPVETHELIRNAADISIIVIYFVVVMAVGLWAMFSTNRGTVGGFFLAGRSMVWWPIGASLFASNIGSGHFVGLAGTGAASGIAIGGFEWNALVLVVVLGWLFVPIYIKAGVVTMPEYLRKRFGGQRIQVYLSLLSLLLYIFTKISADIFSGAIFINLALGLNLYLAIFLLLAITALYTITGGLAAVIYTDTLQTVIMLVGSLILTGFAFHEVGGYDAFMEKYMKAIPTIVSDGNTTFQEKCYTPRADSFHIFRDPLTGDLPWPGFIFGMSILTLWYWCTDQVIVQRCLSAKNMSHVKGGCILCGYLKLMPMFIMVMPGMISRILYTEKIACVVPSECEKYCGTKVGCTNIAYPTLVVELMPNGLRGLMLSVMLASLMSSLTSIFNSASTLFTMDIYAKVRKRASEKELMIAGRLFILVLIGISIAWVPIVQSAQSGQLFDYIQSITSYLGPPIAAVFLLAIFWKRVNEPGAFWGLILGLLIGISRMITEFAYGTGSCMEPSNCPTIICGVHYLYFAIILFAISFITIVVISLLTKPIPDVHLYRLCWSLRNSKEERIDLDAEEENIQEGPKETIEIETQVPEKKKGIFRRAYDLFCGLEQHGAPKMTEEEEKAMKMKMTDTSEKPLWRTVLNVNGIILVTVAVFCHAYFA
Description: SGLT1 activity measurement: 14C-AMG uptake in BHK cells transfected with SGLT1. The conditions noted are these: AMG 50 μM, 37° C., 90 min. The class given is cell-based. From the text: (§1) The compounds can be tested on their SGLT inhibition properties by means of BHK cells expressing SGLT1 and SGLT2. The production of the cells and the testing can be carried out as described below.
To construct the SGLT1 expression vector (KL225), the SLC5A1 gene (homologous to NM_000343) was amplified from a cDNA library using standard PCR technology and cloned over NheI/XhoI sites into pcDNA3.1 expression vector (Invitrogen) containing neomycin as a selection marker. In this vector, transcription uses the enhancer/promoter of human cytomegalovirus.
The final vector KL225 together with an additional vector containing a dihydrofolate reductase gene as a selection marker was introduced into cells. Transfection into BHK21 cells (ATCC CCL-10), cultivated in DMEM medium (GIBCO/BRL), supplemented with 10% foetal calf serum (FCS) and 20 mM glutamine, was carried out using calcium phosphate transfections according to Graham, F. L. and van der Ebb, A. J. (1973), Virology 52: 456 with 5-20 μg of uncut plasmids for 10^7 cells. Stable transfectants were selected in medium containing 1 mg/ml of G418 (GIBCO/BRL) and 20-5000 nM methotrexate as final concentration, where only cells which expressed the neomycin gene and overexpressed the dhfr gene were able to grow. After growth for 2-3 weeks, the cells were cloned (0.5 cells/well) and the clones were investigated for SGLT expression in the radioactive uptake assay. […]
(§2) A 96-well cell-based assay was developed and adapted to HTS requirements:
(§3) BHK cells (transfected with SGLT1 or SGLT2) were seeded into 96-well microtitre plates (Cultureplates, Perkin Elmer). After at least 24 h, medium was removed and the cell layer was washed with assay buffer (140 mM NaCl, 2 mM KCl, 1 mM CaCl2, 1 mM MgCl2, 10 mM HEPES, 5 mM Tris, adjusted with 1 M KOH to pH 7.4). After addition of 40 μl of assay buffer, 50 μl of AMG (50 μM for SGLT1 and 2 mM for SGLT2) in the presence or absence of compounds, the cells were incubated in a total volume of 100 μl at 37° C. for 90 min. Supernatant was removed by suction and discarded. The cells were washed and lysed by addition of 50 μl water. After 10 minutes at room temperature 200 μl Microscint 40 (Perkin Elmer) were added. The radioactivity was counted in a Topcount microplate scintillation counter (Perkin Elmer). The non-specific uptake was determined in sodium-free assay buffer (266 mM sucrose, 2 mM KCl, 1 mM CaCl2, 1 mM MgCl2, 10 mM HEPES, 5 mM Tris, adjusted with 1 M KOH to pH 7.4).

The next assay has as its target T2, SGLT2 (Homo sapiens, UniProt P31639).
T2 construct: expressed in transfected cells
T2 sequence (P31639 1-672): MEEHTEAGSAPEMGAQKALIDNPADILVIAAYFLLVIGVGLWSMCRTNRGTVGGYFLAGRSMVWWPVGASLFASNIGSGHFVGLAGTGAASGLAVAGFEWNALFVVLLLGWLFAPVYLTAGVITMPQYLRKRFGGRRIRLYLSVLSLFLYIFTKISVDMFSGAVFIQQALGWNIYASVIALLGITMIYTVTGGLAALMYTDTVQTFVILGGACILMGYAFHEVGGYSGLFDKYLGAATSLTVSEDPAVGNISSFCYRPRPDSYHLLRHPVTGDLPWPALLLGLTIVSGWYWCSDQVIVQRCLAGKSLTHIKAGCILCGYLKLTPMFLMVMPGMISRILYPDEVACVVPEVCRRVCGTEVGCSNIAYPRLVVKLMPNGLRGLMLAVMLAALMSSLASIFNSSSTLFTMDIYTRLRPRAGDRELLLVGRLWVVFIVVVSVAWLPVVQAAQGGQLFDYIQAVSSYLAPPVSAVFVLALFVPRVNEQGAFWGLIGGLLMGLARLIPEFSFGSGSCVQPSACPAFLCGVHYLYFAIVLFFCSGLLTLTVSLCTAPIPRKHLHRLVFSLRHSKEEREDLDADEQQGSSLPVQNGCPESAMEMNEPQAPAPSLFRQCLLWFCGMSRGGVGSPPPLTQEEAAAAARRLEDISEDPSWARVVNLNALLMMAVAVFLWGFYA
Description: SGLT2 activity measurement: 14C-AMG uptake in BHK cells transfected with SGLT2. The conditions noted are these: AMG 2 mM, 37° C., 90 min. In kind it is cell-based.
Text: as §1
To construct the SGLT2 expression vector (KL224), the SLC5A2 gene (homologous to NM_003041) was amplified from a cDNA library using standard PCR technology and cloned over NheI/XhoI sites into PCI-neo expression vector (Promega) containing neomycin as a selection marker. In this vector, transcription used the enhancer/promoter of human cytomegalovirus and the SV40 polyadenylation signal.
The final vector KL224 together with an additional vector containing a dihydrofolate reductase gene as a selection marker was introduced into cells. Transfection into BHK21 cells (ATCC CCL-10), cultivated in DMEM medium (GIBCO/BRL), supplemented with 10% foetal calf serum (FCS) and 20 mM glutamine, was carried out using calcium phosphate transfections according to Graham, F. L. and van der Ebb, A. J. (1973), Virology 52: 456 with 5-20 μg of uncut plasmids for 10^7 cells. Stable transfectants were selected in medium containing 1 mg/ml of G418 (GIBCO/BRL) and 20-5000 nM methotrexate as final concentration, where only cells which expressed the neomycin gene and overexpressed the dhfr gene were able to grow. After growth for 2-3 weeks, the cells were cloned (0.5 cells/well) and the clones were investigated for SGLT expression in the radioactive uptake assay.
Principally, uptake of ^14C-α-methyl-D-glucopyranoside (AMG) in, for example, Xenopus oocytes injected with the corresponding cRNA has been described (for example Wen-Sen Lee et al. (1994), J. Biol. Chem. 269, 12032-12039; Guofeng You et al. (1995), J. Biol. Chem. 270, 29365-29371).
as §2, §3

On to `CCc1cccc2nc(-c3ccccc3OCC(N)=O)c(Nc3c(C)cccc3C)n12` [Compound A13, 2-[2-(Aminocarbonylmethoxy)phenyl]-3-(2,6-dimethylphenylamino)-5-ethylimidazo[1,2-a]-pyridine], for which the figures for the IC50 against SGLT1 and on SGLT2 were 1 to 10 µM and 0.01 to 1 µM, respectively.

For the compound `COc1ccc(-c2nc3ccccn3c2Nc2c(C)cccc2C)c(OCC(N)=O)c1` [Compound A14, 2-[2-(Aminocarbonylmethoxy)-4-methoxy-phenyl]-3-(2,6-dimethylphenylamino)imidazo-[1,2-a]pyridine], the IC50 at SGLT1 is greater than 10 µM; against SGLT2 it was 0.01 to 1 µM.

Take `COc1ccc(-c2nc3ccccn3c2Nc2c(C)cccc2Cl)c(OCC(N)=O)c1` [Compound A15, 2-[2-(Aminocarbonylmethoxy)-4-methoxy-phenyl]-3-(2-chloro-6-methylphenylamino)-imidazo[1,2-a]pyridine]: the 50% inhibitory concentration (IC50) against SGLT1 was in the range of 1 to 10 µM; on SGLT2, 0.01 to 1 µM.

Take `COc1ccc(-c2nc3ccccn3c2Nc2c(Cl)cccc2Cl)c(OCC(N)=O)c1` [Compound A16, 2-[2-(Aminocarbonylmethoxy)-4-methoxy-phenyl]-3-(2,6-dichlorophenylamino)imidazo-[1,2-a]pyridine]: the IC50 against SGLT1 lay within 1 to 10 µM; against SGLT2 it was 0.01 to 1 µM.

`Cc1ccc(-c2nc3ccccn3c2Nc2c(C)cccc2C)c(OCC(N)=O)c1` [Compound A17, 2-[2-(Aminocarbonylmethoxy)-4-methylphenyl]-3-(2,6-dimethylphenylamino)-imidazo[1,2-a]-pyridine]: the IC50 on SGLT1 is greater than 10 µM; at SGLT2, 0.01 to 1 µM.

On to `CCc1cc(O)cc(OCC(N)=O)c1-c1nc2ccc(F)cn2c1Nc1c(C)cccc1C` [Compound A102, 2-[2-(Aminocarbonylmethoxy)-6-ethyl-4-hydroxy-phenyl]-3-(2,6-dimethylphenylamino)-6-fluoro-imidazo[1,2-a]pyridine], for which the IC50 fell in the range of 1 to 10 µM at SGLT1 and 0.01 to 1 µM against SGLT2.

Turning to `CCc1cc(OC2CCCCO2)cc(OCC(N)=O)c1-c1nc2ccccn2c1Nc1c(C)cccc1C` (stereo not drawn) [Compound A166, 2-[2-(Aminocarbonylmethoxy)-4-(tetra-hydropyran-2-yloxy)-6-ethylphenyl]-3-(2,6-dimethylphenylamino)imidazo[1,2-a]pyridine], the concentration for half-maximal inhibition (IC50) against SGLT1 is greater than 10 µM; at SGLT2 it was 0.01 to 1 µM.

As for `CCc1cc(OCC(N)=O)cc(OCC(N)=O)c1-c1nc2ccccn2c1Nc1c(C)cccc1C` [Compound A167, 2-[2-(Aminocarbonylmethoxy)-4-(amino-carbonylmethoxy)-6-ethylphenyl]-3-(2,6-dimethylphenylamino)imidazo[1,2-a]pyridine], the IC50 on SGLT1 is greater than 10 µM; against SGLT2, 0.01 to 1 µM.

In the case of `Cc1cc(C)c(-c2nc3ccccn3c2Nc2c(C)cccc2C)c(OCC(N)=O)c1` [Compound A168, 2-[2-(Aminocarbonylmethoxy)-4,6-dimethyl-phenyl]-3-(2,6-dimethylphenylamino)imidazo-[1,2-a]pyridine], the IC50 at SGLT1 was greater than 10 µM; on SGLT2 it was 0.01 to 1 µM.

As for `Cc1cc(C)c(-c2nc3ccc(F)cn3c2Nc2c(C)cccc2C)c(OCC(N)=O)c1` [Compound A169, 2-[2-(Aminocarbonylmethoxy)-4,6-dimethyl-phenyl]-3-(2,6-dimethylphenylamino)-6-fluoro-imidazo[1,2-a]pyridine], the IC50 at SGLT1 lay in the range of 1 to 10 µM; against SGLT2, 0.01 to 1 µM.

As for `Cc1cccc(C)c1Nc1c(-c2c(C)cc(OCC(N)=O)cc2OCC(N)=O)nc2ccccn12` [Compound A170, 2-[2-(Aminocarbonylmethoxy)-4-(amino-carbonylmethoxy)-6-methylphenyl]-3-(2,6-dimethylphenylamino)imidazo[1,2-a]pyridine], the IC50 against SGLT1 lay in the range of 1 to 10 µM; against SGLT2, 0.01 to 1 µM.

Regarding `Cc1cccc(C)c1Nc1c(-c2c(C)cc(O)cc2OCC(N)=O)nc2ccccn12` [Compound A171, 2-[2-(Aminocarbonylmethoxy)-4-hydroxy-6-methylphenyl]-3-(2,6-dimethylphenylamino)-imidazo[1,2-a]pyridine], the half-inhibitory concentration (IC50) on SGLT1 was greater than 10 µM; at SGLT2, 0.01 to 1 µM.

As to `COc1cc(C)c(-c2nc3ccccn3c2Nc2c(C)cccc2C)c(OCC(N)=O)c1` [Compound A172, 2-[2-(Aminocarbonylmethoxy)-4-methoxy-6-methylphenyl]-3-(2,6-dimethylphenylamino)-imidazo[1,2-a]pyridine], the values for the IC50 at SGLT1 and at SGLT2 were greater than 10 µM and 0.01 to 1 µM, respectively.

For the compound `Cc1cccc(C)c1Nc1c(-c2c(C)cc(OCc3ccccc3)cc2OCC(N)=O)nc2ccccn12` [Compound A173, 2-[2-(Aminocarbonylmethoxy)-4-benzyloxy-6-methylphenyl]-3-(2,6-dimethylphenylamino)-imidazo[1,2-a]pyridine], the IC50 on SGLT1 and against SGLT2 was greater than 10 µM each time.

In the case of `CCc1cccc(C)c1Nc1c(-c2ccccc2OCC(N)=O)nc2ccc(F)cn12` [Compound A174, 2-[2-(Aminocarbonylmethoxy)phenyl]-3-(2-methyl-6-ethylphenylamino)-6-fluoroimidazo-[1,2-a]pyridine], the half-inhibitory concentration (IC50) against SGLT1 is greater than 10 µM; on SGLT2, 0.01 to 1 µM.

For the origin of these results see patent publication US8258151B2, “3-aminoimidazo [1,2-A] pyridine derivatives as SGLT inhibitors” (Merck Patent GmbH, priority 2006, dated 2012).
